These results are taken from patent publication US20170066801A1, “ALPHA3BETA HYDROGEN BOND SURROGATE MACROCYCLES AS MODULATORS OF RAS” (NEW YORK UNIVERSITY, priority 2014, published 2017).

Entries after “also recorded” stand apart in the source; their conditions may differ. Where two headings read alike, the source gives them in different places.

The target of test [1] is Sos-mediated Ras nucleotide exchange (Homo sapiens, UniProt P01112). The test is described as follows: In vitro nucleotide exchange (mant-GDP, SOS-Cat). It counts as biochemical. Here is the method:
Exchange assays were performed by incubating 1 μM of recombinant wild type Ras protein with 1 μM mant-GDP in exchange buffer (20 mM Tris-HCl pH 7.6, 50 mM NaCl, 4 mM EDTA) for 5 minutes on ice. The mixture was then supplemented with 10 mM MgCl2 and incubated for an additional 6 hours at 4° C. Exchange reaction was initiated by either the addition of 100 μM-unlabeled GDP, (negative control) or the addition of 100 μM-unlabeled GDP in the presence of 1 μM SOS-Cat. The levels of fluorescence anisotropy were measured on a Perkin Elmer fluorescence spectrometer (model LS50B) with an excitation wavelength of 370 nm and emission detection at 430 nm. To test the inhibitory properties of the HBSSOS helices, indicated peptides were added to the mant-loaded Ras at a concentration of 1 uM and allowed to stand for 10 minutes at 4° C. before the addition of SosCat. Dissociation rates (Koff values) were determined by fitting raw data to a first-order exponential decay function using GraphPad Prism version 6.00 for OSX (GraphPad Software, La Jolla Calif. USA, www.graphpad.com). Data was normalized to t=0, converted to a percentage, and plotted as a curve for ease of visualization.
We evaluated inhibition of nucleotide exchange under stringent conditions consisting of 1 μM each of Ras, SOS, and the inhibitor.

Test [2] has as its system mutant Ras and wild type Ras cancer cell lines. Kind of test: Analysis of DNA content by FACS (cell cycle). In kind it is cell-based. How it is done: DNA content was determined by flow cytometric analysis using TO-PRO®-3 Iodide (Life Technologies Corp., Grand Island, N.Y.) to stain nucleic acids. Cell lines were plated at ˜40-50% confluency in multi-well format and 12-hours post plating were treated with either HBS helices or vehicle control at the indicated dose. After the indicated incubation period the culture media was collected, and the cells were trypsinized, pooled with the media, pelleted in a clinical centrifuge, resuspended in a small volume of PBS, and added dropwise to 100% ice-cold ethanol while vortexing at low speed, resulting in a final concentration of ˜70% ethanol. Cells were fixed in this solution on ice for 24 hours. Subsequently cells were pelleted at 4° C., washed once with a solution of 1% BSA in PBS, and resuspended in a solution of 1% BSA, 0.5% Triton X-100, 1:5000 TO-PRO®-3 Iodide (Life Technologies Corp., Grand Island, N.Y.). Results and Discussion of Examples 1-9
We next sought to gain mechanistic insight into the attenuated growth and viability of cancer cells that is observed upon inhibition of Sos-mediated Ras activation with α3β-HBSSOS. Because of the link between Ras signaling and cell cycle progression, we reasoned that DNA content analysis would elucidate Ras-mediated effects on cell growth. […]

For test [3], the system named is panel of six human cancer cell lines. The test is described as follows: Growth and viability of a panel of six human cancer cell lines. Particulars: for effect on cell growth relative to vehicle control: single administration of 5 μM, six days. In kind it is cell-based. Here is the method:
(§1) Various indicated cell lines were plated at low density (˜500-1000 cells per well) in a 96-well format. 12 hours post-plating, media was supplemented with either PBS vehicle, or indicated dosage, and cells were allowed to grow for ˜5.5 days. Cells were subsequently fixed for 1 hour with a 3.7% formaldehyde solution in PBS, and stained with Syto-60 nucleic acid stain (MANUFACTURER) in solution (1:2000 Syto-60, 0.5% Triton X-100, 100 ug/mL RNAse-A, in PBS). Syto-60 stained cells were subjected to quantitative imaging in 96-well plates (Odyssey® Imager, LI-COR Biosciences; excitation: 652; emission: 678) with a 3.0 mm z-axis offset to the scan-head to get the cellular nuclei in the optimal focal plane for quantification. Absolute fluorescence intensity was normalized to the vehicle control for each respective cell line at each dose. Normalized values were visualized on a semilog plot, and data was subjected to non-linear sigmoidal dose-response to determine half-maximal effective concentration (EC50) using GraphPad Prism version 6.00 for OSX, (GraphPad Software, La Jolla Calif. USA, www.graphpad.com).
(§2) To investigate the functional consequence of inhibiting Ras activation in the context of oncogenic mutations, we examined the effect of α3β-HBSSOS on the growth and viability of cancer cells of different origins. We selected a panel of six human cancer cell lines derived from the pancreas, colon, and bladder, which harbor a variety of oncogenic proteins including mutant KRas (Table 3).
(§3) α3β-HBSSOS reduces cell viability in a dose dependent manner, with the effect spanning over four orders of magnitude. We divided the cell lines into two groups with respect to EC50 values (Table 3). […] We hypothesized that differential cellular uptake may account for the different potency of the peptides between the oncogenic and wild type RTK-Ras cell lines.

In test [4] the target is T1, wild type HRas (Homo sapiens, UniProt P01112).
T1 construct: levels of GTP-loaded endogenous HRas, KRas, and NRas proteins; endogenous in cells; host or cells: MIA PaCa-2
The test is described as follows: RBD-pulldown of GTP-loaded Ras in MIA PaCa-2 cells. Particulars: 48 hours. It counts as cell-based. Here is the method:
(§4) To determine the effect of α3β-HBSSOS on Sos-mediated Ras activation in cells we treated MIA PaCa-2 cells, which harbor oncogenic KRas, with α3β-HBSSOS, control peptides, or vehicle control for 48 hours. Utilizing the RBD-pulldown assay we determined the levels of GTP-loaded endogenous HRas, KRas, and NRas proteins. As expected, MIA PaCa-2 cells display GTP-loading of all isoforms at steady state when treated with the vehicle control (FIGS. 11A-B).

Test [5] concerns the target T2, wild type NRas (Homo sapiens, UniProt P01111).
T2 construct: levels of GTP-loaded endogenous HRas, KRas, and NRas proteins; endogenous in cells; host or cells: MIA PaCa-2
Kind of test: RBD-pulldown of GTP-loaded Ras in MIA PaCa-2 cells. In kind it is cell-based. Particulars: 48 hours. How it is done:
as §4

Test [6] has as its target T3, oncogenic KRas (Homo sapiens, UniProt P01116, G12C).
T3 construct: levels of GTP-loaded endogenous HRas, KRas, and NRas proteins; endogenous in cells; host or cells: MIA PaCa-2
The test is described as follows: RBD-pulldown of GTP-loaded Ras in MIA PaCa-2 cells. In kind it is cell-based. Particulars: 48 hours. How it is done: as §4

In test [7] the target is T4, HRas^(1-166) (Homo sapiens, UniProt P01112).
T4 construct: 6×His-tagged HRas WT 1-166; made in house
The test is described as follows: In vitro pulldown binding assay with 6×His-tagged HRas 1-166 and fluorescein-tagged SOS peptides. Here is the method: Recombinantly purified 6×His-tagged HRas WT 1-166 was incubated with Ni-NTA sepharose beads, generating recombinant Ras on solid support. FITC labeled HBS peptides were incubated in the presence of recombinant HRas-6×His/Ni-NTA Sepharose complex at 4° C. for 1 hour. Beads complexes were pelleted and washed 5× with protein buffer (20 mM Tris-HCl pH 7.6, 50 mM NaCl, 4 mM EDTA, 10 mM MgCl2), resuspended in reducing buffer (126 mM Tris-HCL pH 6.8, 20% glycerol, 4% SDS, 0.02% bromophenol blue, 2.5% β-mercaptoethanol), boiled for 10 minutes at 95° C., and subjected to SDS-PAGE with an acrylamide percentage of 20% to allow for sufficient resolution of the HBS helices. SDS-PAGE gels were imaged using an ImageQuant™ LAS 4000 biomolecular imager (GE Healthcare, Piscataway, N.J., USA). Quantification of fluorescence by FITC-HBS helices in gel was determined by manufacturer provided ImageQuant™ TL software. Raw values were normalized to total input and plotted on a semilog graph with GraphPad Prism version 6.00 for OSX (GraphPad Software, La Jolla Calif. USA, www.graphpad.com).
The binding affinity of the designed compounds for Ras was determined using in vitro pulldown assays with recombinantly purified 6×His-tagged HRas^(1-166) and fluorescein-tagged SOS peptides (FIGS. 8 and 9, and Table 2). […] Although, the exact binding mode of the peptides and the conformational state of Ras is not known, the enhanced affinity of the α3β-HBSSOS compound likely reflects a combination of both the higher conformational stability of the HBS α3β construct and the exact Ras conformation it can access. […] Because, the SOS analogs can bind nucleotide-free and bound Ras, we hypothesize that the compounds are accessing an intermediate switch conformation.

Test [8] relates to mutant Ras cells. The test is described as follows: Phosphorylated H2AX and cleaved caspace-3 immunofluorescence. It counts as cell-based. Particulars: only mutant Ras cells. The text has this: We next sought to gain mechanistic insight into the attenuated growth and viability of cancer cells that is observed upon inhibition of Sos-mediated Ras activation with α3β-HBSSOS. Because of the link between Ras signaling and cell cycle progression, we reasoned that DNA content analysis would elucidate Ras-mediated effects on cell growth. […] This cellular response to pharmacological inhibition of Ras activation by α3β-HBSSOS phenocopies the effects of the post-transcriptional silencing of wild type Ras and Sos in oncogenic Ras-driven cancer. These corroborant genetic and pharmacological cell viability defects support the therapeutic strategy of targeting wild type Ras activation.

For test [9], the system named is BxPc3. It counts as cell-based, human. Particulars: BxPc3, Ras WT; read-out: EC50 for cell viability. How it is done: as §1, §2, §3
Test [10] relates to CaCo2. It counts as cell-based, human. Particulars: CaCo2, Ras WT; read-out: EC50 for cell viability. How it is done: as §1, §2, §3
Test [11] has as its system HCT116. It counts as cell-based, human. Particulars: read-out: EC50 for cell viability. Here is the method: as §1, §2, §3
The subject of test [12] is J82. In kind it is cell-based, human. Particulars: read-out: EC50 for cell viability. How it is done:
as §1, §2, §3

Test [13] has as its system SW780. In kind it is cell-based, human. Particulars: SW780, Ras WT; read-out: EC50 for cell viability. Here is the method:
as §1, §2, §3

Test [14] has as its system Mia PaCa2. It counts as cell-based, human. Particulars: read-out: EC50 for cell viability. Here is the method: as §1, §2, §3
The target in test [15] is 6×His-tagged HRas WT 1-166 (UniProt P01112). Kind of test: in vitro pull-down: fluorescein-tagged peptide on 6×His-HRas 1-166 / Ni-NTA beads, in-gel fluorescence.

T2 sequence (P01111 whole entry): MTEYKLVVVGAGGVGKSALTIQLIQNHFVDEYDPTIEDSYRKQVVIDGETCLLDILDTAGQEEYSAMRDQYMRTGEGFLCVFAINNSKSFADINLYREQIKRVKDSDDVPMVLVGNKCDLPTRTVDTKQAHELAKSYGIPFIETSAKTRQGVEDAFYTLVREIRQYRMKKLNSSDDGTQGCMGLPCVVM
T3 sequence (P01116 whole entry G12C): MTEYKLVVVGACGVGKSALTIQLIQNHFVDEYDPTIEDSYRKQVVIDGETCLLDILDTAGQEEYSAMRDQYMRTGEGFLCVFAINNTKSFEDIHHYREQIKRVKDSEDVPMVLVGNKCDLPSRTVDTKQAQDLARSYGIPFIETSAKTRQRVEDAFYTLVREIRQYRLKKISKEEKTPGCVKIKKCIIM

By Kd is commonly meant the concentration at which binding is half-saturated. What is called EC50 is the midpoint of the concentration-response curve. As to `CC[C@H](C)[C@@H](CC(=O)N[C@@H](Cc1ccc(O)cc1)C(=O)N[C@@H](CCCNC(=N)N)C(=O)N[C@@H](CC(C)C)C(=O)N[C@@H](CCC(=O)O)CC(=O)N[C@@H](CC(C)C)C(=O)N[C@@H](CC(C)C)C(=O)N[C@@H](CCCCN)C(=O)N[C@@H](C)CC(=O)N[C@@H](CCC(=O)O)C(=O)N[C@@H](CCC(=O)O)C(=O)N[C@@H](C)C(=O)N[C@@H](CC(N)=O)C(N)=O)NC(=O)CN1CC=CCCCC(=O)N[C@@H](Cc2ccccc2)C(=O)N[C@@H](CCC(=O)O)C1=O` [α3β-HBSSOS, ZFEG*iYRLeLLKaEEAN-NH2], the “inhibition of Sos-mediated Ras nucleotide exchange” value in [1] (1 μM each of Ras, SOS, and the inhibitor) was “potent inhibitory effect”. In addition, the “concentration giving inhibitory effect comparable to previously reported α-HBSSOS” value in test [1] (relative to α-HBSSOS concentration) is “one-twentieth”. Besides, in test [2] (mutant Ras cells (MIA PaCa-2, HCT-116, Umuc3, T24), 48 hours), the “cells with 4N DNA content” value is “accumulation”. Besides, the “accumulation in the G2/M phase of the cell cycle” value in test [2] (wild type Ras cell lines (SW780, BxPc3, J82)) is recorded as “do not accumulate”. For the same molecule, the “effect on viability of the wild-type Ras group” value in [3] (CaCo2, SW780, and BxPc3) is listed as “limited effects on viability”. For the same molecule, in test [3], the “effect on cell growth relative to vehicle control” value was “inhibited the growth of all cell lines to varying degrees”. For the same molecule, the “GTP-loading of wild type HRas” value in test [4] was “completely abrogated”. For the same molecule, the “GTP-loading of wild type NRas” value in test [5] was “completely abrogated”. Further, the “GTP-loading of oncogenic KRas” value in [6] is listed as “diminished; also recorded: significantly reduced”. In addition, the “fold greater affinity than the all-α analog α-HBSSOS” value in [7] is reported as 50 fold. In addition, the Kd in test [7] (fluorescein-tagged peptides, 4° C., 1 hour) stood at 220 ± 56 nM. The “DNA strand breaks and apoptosis” value in test [8] is given as “increased levels”. For the same molecule, the EC50 in [9] turned out to be 1180 nM; in test [10], 2670 nM; in test [11] (HCT116, Kras G13C) it was 243 nM; in [11] (HCT-116) it was 243 ± 44 nM; in test [12] (J82, Ras WT, FGFR3 CA), 65.2 nM; in [12] (J82) it was 65.2 ± 43 nM. Also, the EC50 in test [13] came to 1450 nM; in test [14] (MIA PaCa-2), 144 ± 57 nM; in [14] (Mia PaCa2, Kras G12D), 144 nM.

On to ZAEG*iYRLeLLKaEAAA-NH2 [α3β-HBSMUT], for which, in [3], the “effect on cell growth relative to vehicle control” value is listed as “no effect on cell growth”. The “GTP-loading of wild type HRas” value in test [4] is listed as “not”. Moreover, in [5], the “GTP-loading of wild type NRas” value was “not”.

B1: α3β-HBSSOS-Flu (peptide)
peptide: FEGIYRLELLKAEEANK
modifications: not fully specified; printed as ZFEG*iYRLeLLKaEEANK(Flu)-NH2: Z = N-terminal 5-hexenoic acid residue; G* (position 3) = bridged allylglycine residue (hydrogen bond surrogate macrocycle between Z and G3); lowercase i (position 4), e (position 8), a (position 12) = β3-residues; K17 carries fluorescein (Flu); C-terminal amide
B1: the fold greater affinity than α-HBSSOS in test [15] amounted to 50 fold.
